From paper PMC10095345, “The Role of Tyr-His-Trp Triad and Water Molecule Near the N1-Atom of 2-Hydroperoxycoelenterazine in Bioluminescence of Hydromedusan Photoproteins: Structural and Mutagenesis Study” (International Journal of Molecular Sciences, 2023)

Tests used:
[1] = biological target: T1, aequorin (AV_wt) (Aequorea victoria, UniProt P07164); assay: Ca2+-triggered bioluminescence of charged photoprotein, luminometer; assay type: biochemical; details: 2 mM CaCl2, 50 mM Tris-HCl pH 8.5, 23 C; bound as 2-hydroperoxycoelenterazine
T1 construct: apo-aequorin with N-terminus truncated by six residues, from pET22-A7 in E. coli BL21-Gold (DE3) Codon Plus (RIPL), charged with coelenterazine
T1 sequence (P07164 7-196 limits assumed): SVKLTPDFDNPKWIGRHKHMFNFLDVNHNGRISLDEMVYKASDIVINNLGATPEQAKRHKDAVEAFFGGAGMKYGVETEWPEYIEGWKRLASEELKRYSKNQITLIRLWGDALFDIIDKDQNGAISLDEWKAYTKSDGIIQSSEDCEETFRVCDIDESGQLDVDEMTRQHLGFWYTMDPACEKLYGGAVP

[2] = biological target: T2, obelin (OL_wt) (Obelia longissima, UniProt Q27709); assay: as above; assay type: biochemical; details: 2 mM CaCl2, 50 mM Tris-HCl pH 8.5, 23 C; bound as 2-hydroperoxycoelenterazine
T2 construct: full-length apo-obelin from pET19-OL8 in E. coli BL21-Gold (DE3) Codon Plus (RIPL), charged with coelenterazine; 195 residues
T2 sequence (Q27709 whole entry): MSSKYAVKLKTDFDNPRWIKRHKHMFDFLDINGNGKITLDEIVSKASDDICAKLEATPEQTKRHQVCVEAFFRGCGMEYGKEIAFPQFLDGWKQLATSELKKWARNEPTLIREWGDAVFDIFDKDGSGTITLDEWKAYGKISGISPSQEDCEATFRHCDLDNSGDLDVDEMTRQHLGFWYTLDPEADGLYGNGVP

## Oc1ccc(Cc2nc3c(Cc4ccccc4)nc(-c4ccc(O)cc4)cn3c2O)cc1 [coelenterazine]
[1]
  Ca2+-triggered bioluminescence of charged photoprotein, luminometer: Obelin and aequorin as well as their mutants were purified and activated with coelenterazine
[2]
  Ca2+-triggered bioluminescence of charged photoprotein, luminometer: Obelin and aequorin as well as their mutants were purified and activated with coelenterazine
